Assay: Photostability of BMDBM/OMC compositions in acetonitrile under UV irradiation, with and without APP analogue
Format: physicochemical
Details: no APP
Procedure: Comparisons were performed to evaluate the abilities of APP derivatives of Formula I, Ia, Ib, Ic, Id, Ie, If, or combination thereof to photostabilize photoactive compounds. UV light exposure is often measured in MED rather than a measurement of time. MED relates to the minimal dosage of UV exposure required to result in redness 24 hours after exposure. Although technically an individualized measurement that would vary depending on the sensitivity of an individual's skin, MED measurements have been standardized with the advent of UV bulbs and lamps. FIG. 1 illustrates the photoinstability of a composition containing BMDBM and OMC. […] Absorption was measured for wavelengths 250 nm to 500 nm in length. BMDBM absorbs wavelengths around 375 nm in length, which can be seen as a distinct peak on the line illustrating the composition which was not irradiated with UV light. […] FIG. 2 illustrates the photostabilization of a photoactive composition by the addition of an APP analogue of Formula I. […] The APP analogue was a 1:1 blend of Formula Ia and Formula Ib. […] FIG. 3 illustrates the percentage of BMDBM remaining in compositions after irradiation with 15 MED of UV light. […] The APP analogue was a 1:1 blend of Formula Ia and Formula Ib.

- BMDBM absorption peak at 375 nm after UV irradiation (acetonitrile solution, 10 ppm BMDBM and 10 ppm OMC, 15 MED versus 0 MED, FIG. 1): substantially diminished
- percentage of BMDBM remaining capable of absorbing light at 375 nm after irradiation (composition of 10 ppm BMDBM and 10 ppm OMC, 15 MED of UV light, FIG. 3): 2.9%
Compound: COc1ccc(C(=O)CC(=O)c2ccc(C(C)(C)C)cc2)cc1 [BMDBM, 4-tert-butyl-4-methoxy-dibenzoylmethane]
